Reference: patent publication US6376670B1, “Quinoline-indole antimicrobial agents, uses and compositions related thereto” (Sepracor Inc., priority 1997, dated 2002)
Converted amounts (≈) assume the structure as drawn. Where two headings read alike, the source gives them in different places.

Legend:
Test in all cases: Determination of MIC values (BHI broth, 96 well microtiter plate)
Format in all cases: cell-based
[1] = test system: vancomycin-resistant Enterococcus spp. (VRE); settings: for MIC: Enterococcus, VRE, read-out: MIC VREF
Summary of the method: (§1)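 MIC is read as the lowest drug concentration showing no observable growth after roughly 16 hours at 37° C in approx. 7-10% CO2. Testing used BHI broth containing compound at 0.39–25 µg/mL final, inoculated with 10^5 to 10^6 cells/mL.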

[2] = test system: methicillin-resistant Staphylococcus aureus (MRSA); settings: Staphylococcus aureus, MRSA, read-out: MIC MRSA
Summary of the method: as §1

Streptococcus pneumoniae = settings: Streptococcus pneumoniae, read-out: MIC S. pneu
Summary of the method: as §1

[3] = 16 h, BHI broth, 37° C., about 16 hours
[4] = BHI broth, 37° C., about 16 hours

| Compound | MIC [1, 3] [µg/mL] | MIC [2, 3] [µg/mL] | MIC (Streptococcus pneumoniae; [4]) [µg/mL] | further results |
| --- | --- | --- | --- | --- |
| Cn1cc(-c2cc(C(=O)NCCN)c3cc(C#CCNCCc4ccccc4)ccc3n2)c2cc(Br)ccc21 [Example 399] |  |  |  | MIC ([1]; VREF, BHI broth, overnight 37° C.): < 7 µg/mL; MIC ([2]; BHI broth, overnight 37° C.): < 7 µg/mL; MIC (Streptococcus pneumoniae; S. pneu, BHI broth, overnight 37° C.): < 7 µg/mL |
| Cn1cc(-c2cc(C(=O)NCCN)c3cc(C#CCNCCc4ccc(Cl)cc4)ccc3n2)c2cc(Br)ccc21 [Example 400] | < 7 | < 7 | < 7 |  |
| Cn1cc(-c2cc(C(=O)NCCN)c3cc(C#CCNCC4CCCCC4)ccc3n2)c2cc(Br)ccc21 [Example 401] | < 7 | < 7 | < 7 |  |
| CN(C)CCNCC#Cc1ccc2nc(-c3cn(C)c4ccc(Br)cc34)cc(C(=O)NCCN)c2c1 [Example 402] | < 7 | < 7 | < 7 |  |
| Cn1cc(-c2cc(C(=O)NCCN)c3cc(C#CCN4CCCC4)ccc3n2)c2cc(Br)ccc21 [Example 403] | < 7 | < 7 | < 7 |  |
| Cn1cc(-c2cc(C(=O)NCCN)c3cc(C#CCN4CCc5ccccc5C4)ccc3n2)c2cc(Br)ccc21 [Example 404] | < 7 | < 7 | < 7 |  |
| CN1CCN(CC#Cc2ccc3nc(-c4cn(C)c5ccc(Br)cc45)cc(C(=O)NCCN)c3c2)CC1 [Example 405] | < 25 | < 25 | < 25 |  |
| Cn1cc(-c2cc(C(=O)NCCN)c3cc(C#CCN4CC=CC4)ccc3n2)c2cc(Br)ccc21 [Example 406] | < 7 | < 7 | < 7 |  |
| CN(CC#Cc1ccc2nc(-c3cn(C)c4ccc(Br)cc34)cc(C(=O)NCCN)c2c1)C1CCCCC1 [Example 407] | < 7 | < 7 | < 7 |  |
| CC(C)N(CC#Cc1ccc2nc(-c3cn(C)c4ccc(Br)cc34)cc(C(=O)NCCN)c2c1)C(C)C [Example 408] | < 7 | < 7 | < 7 |  |
| Cc1cccc2ccc(-c3c[nH]c4ccc(C#N)cc34)nc12 [Example 409] | > 25 | > 25 | > 25 |  |
| Cc1cccc2ccc(-c3c[nH]c4cc(Cl)ccc34)nc12 [Example 410] | > 25 | < 25 | < 25 |  |
| Cc1ccc2[nH]cc(-c3ccc4cccc(C)c4n3)c2c1 [Example 411] | > 25 | > 25 | > 25 |  |
| COc1ccc2nc(-c3c[nH]c4ccc(Br)cc34)ccc2c1 [Example 412] | > 25 | < 7 | > 25 |  |
| COc1ccc2nc(-c3c[nH]c4cc(F)ccc34)ccc2c1 [Example 413] | > 25 | > 25 | > 25 |  |
| COc1ccc2nc(-c3c[nH]c4cc(Cl)ccc34)ccc2c1 [Example 414] | > 25 | > 25 | > 25 |  |
| COc1ccc2nc(-c3c[nH]c4ccc(C)cc34)ccc2c1 [Example 415] | > 25 | < 7 | > 25 |  |

| Compound | MIC [1, 3] [µg/mL] | MIC [2, 3] [µg/mL] | MIC (Streptococcus pneumoniae; [4]) [µg/mL] | further results |
| --- | --- | --- | --- | --- |
| COc1ccc2nc(-c3c[nH]c4ccc(Cl)cc34)ccc2c1 [Example 416] | > 25 | < 7 | < 7 |  |
| C[Si](C)(C)CCOC(=O)n1cc(-c2nc3ccc(Cl)cc3c3c2CCO3)c2cc(Br)ccc21 [Example 421] |  |  |  | MIC ([1]; 16 h): > 25 µg/mL; MIC ([2]; 16 h): > 25 µg/mL; MIC (Streptococcus pneumoniae; 16 h): > 25 µg/mL |
| Cc1cccc2ccc(-c3c[nH]c4ccc(Br)cc34)nc12 [Example 422] | > 25 | > 25 | > 25 |  |
| Cc1cccc2ccc(-c3c[nH]c4cc(F)ccc34)nc12 [Example 423] | > 25 | > 25 | > 25 |  |
| COc1ccc2[nH]c(C)c(-c3ccc4cccc(C)c4n3)c2c1 [Example 424] | > 25 | < 25 | < 25 |  |
| Cc1[nH]c2ccc(Cl)cc2c1-c1ccc2cccc(C)c2n1 [Example 425] | < 7 | < 7 | < 7 |  |
| Cc1ccc2[nH]c(C)c(-c3ccc4cccc(C)c4n3)c2c1 [Example 426] | > 25 | < 25 | < 25 |  |
| Cc1cccc2ccc(-c3c[nH]c4ccc(Cl)cc34)nc12 [Example 427] | > 25 | > 25 | > 25 |  |
| COc1ccc2nc(-c3c(C)[nH]c4ccc(OC)cc34)ccc2c1 [Example 428] | > 25 | > 25 | > 25 |  |
| COc1ccc2nc(-c3c(C)[nH]c4ccc(Cl)cc34)ccc2c1 [Example 429] | > 25 | < 7 | < 7 |  |
| COc1ccc2nc(-c3c[nH]c4ccc(OC)cc34)ccc2c1 [Example 430] | > 25 | < 25 | < 25 |  |
| COc1ccc2nc(-c3c(C)[nH]c4ccc(C)cc34)ccc2c1 [Example 431] | > 25 | > 25 | > 25 |  |
| Cc1ccc2nc(-c3c[nH]c4ccc(Br)cc34)ccc2c1 [Example 432] | > 25 | < 7 | < 7 |  |
| COc1ccc2[nH]c(C)c(-c3ccc4cc(C)ccc4n3)c2c1 [Example 434] | > 25 | > 25 | > 25 |  |
| Cc1ccc2nc(-c3c[nH]c4cc(F)ccc34)ccc2c1 [Example 435] | > 25 | > 25 | > 25 |  |
| Cc1ccc2nc(-c3c[nH]c4cc(Cl)ccc34)ccc2c1 [Example 436] | > 25 | < 7 | < 7 |  |
| OCc1cc(-c2c[nH]c3ccc(Br)cc23)nc2cc(F)ccc12 [Example 446] |  | < 7 | < 7 | MIC VREF [1, 4]: <7 µg/mL |

More lines, main results first:

| MIC [1, 3] [µg/mL] | MIC [2, 3] [µg/mL] | MIC (Streptococcus pneumoniae; [4]) [µg/mL] | Compound | further results |
| --- | --- | --- | --- | --- |
| > 25 | < 7 | < 7 | Cc1ccc2nc(-c3c(C)[nH]c4ccc(Cl)cc34)ccc2c1 [Example 437] |  |
| > 25 | > 25 | > 25 | COc1ccc2[nH]cc(-c3ccc4cc(C)ccc4n3)c2c1 [Example 438] |  |
| > 25 | > 25 | > 25 | Cc1ccc2nc(-c3c(C)[nH]c4ccc(C)cc34)ccc2c1 [Example 439] |  |
| > 25 | > 25 | < 25 | Cc1ccc2nc(-c3c[nH]c4ccc(C)cc34)ccc2c1 [Example 440] |  |
| > 25 | > 25 | > 25 | Cc1ccc2nc(-c3c[nH]c4ccc(Cl)cc34)ccc2c1 [Example 441] |  |
| < 25 | < 7 | < 7 | OCc1cc(-c2c[nH]c3ccc(Br)cc23)nc2ccccc12 [Example 442] |  |
| < 25 | < 7 | < 7 | OCc1cc(-c2c[nH]c3ccc(Br)cc23)nc2ccc(F)cc12 [Example 443] |  |
| < 25 | < 7 | < 7 | OCc1cc(-c2c[nH]c3ccc(Br)cc23)nc2c(F)cccc12 [Example 444] |  |
| < 7 | < 7 | < 7 | OCc1cc(-c2c[nH]c3ccc(Br)cc23)nc2ccc(Br)cc12 [Example 445] |  |
| > 25 | < 7 | < 25 | Clc1ccc2nc(-c3c[nH]c4ccc(Br)cc34)c3c(c2c1)OCC3 [Example 448] |  |
| > 25 | > 25 | > 25 | COc1ccc2nc(-c3c(C)[nH]c4ccccc34)ccc2c1 [Example 449] |  |
| > 25 | > 25 | > 25 | COc1ccc2nc(-c3c[nH]c4ccc(OCc5ccccc5)cc34)ccc2c1 [Example 450] |  |
| > 25 | < 7 | < 7 | Clc1cc(-c2c[nH]c3ccccc23)nc2ccccc12 [Example 451] |  |
| > 25 | < 7 | < 7 | OCc1cc(-c2c[nH]c3ccc(Br)cc23)nc2ccc(I)cc12 [Example 452] |  |
| < 7 | < 7 | < 7 | OCc1cc(-c2c[nH]c3ccc(Br)cc23)nc2cc(I)ccc12 [Example 453] |  |
| < 7 | < 7 | < 7 | OCc1cc(-c2c[nH]c3ccc(Br)cc23)nc2c(I)cccc12 [Example 454] |  |
|  | < 7 | < 7 | OCc1cc(-c2c[nH]c3ccc(Br)cc23)nc2ccc(Cl)cc12 [Example 455] | MIC VREF [1, 4]: <7 µg/mL |
|  | < 7 | < 7 | OCc1cc(-c2c[nH]c3ccc(Br)cc23)nc2cc(Cl)ccc12 [Example 456] | MIC VREF [1, 4]: <7 µg/mL |
| < 7 | < 7 | < 7 | OCc1cc(-c2c[nH]c3ccc(Br)cc23)nc2c(Cl)cccc12 [Example 457] |  |
| < 7 | < 7 | < 7 | OCc1cc(-c2c[nH]c3ccc(Br)cc23)nc2c(Br)cccc12 [Example 458] |  |
| > 25 | > 25 | > 25 | OCc1[nH]c2ccccc2c1-c1cc(Cl)c2ccccc2n1 [Example 459] |  |
| < 7 | < 7 | < 7 | Clc1ccc2c(Cl)cc(-c3c[nH]c4ccc(Br)cc34)nc2c1 [Example 460] |  |
| > 25 | > 25 | > 25 | N#Cc1ccc2[nH]cc(-c3cc(Cl)c4ccc(Cl)cc4n3)c2c1 [Example 462] |  |
| > 25 | 25 (≈ 71.9 µM) | 25 (≈ 71.9 µM) | Clc1ccc2c(Cl)cc(-c3c[nH]c4cc(Cl)ccc34)nc2c1 [Example 463] |  |
